Consider one molecule from ChEMBL document CHEMBL1140688, “Sulfenamides as prodrugs of NH-acidic compounds: a new prodrug option for the amide bond” (Bioorg Med Chem Lett, 2007).

Format in all cases: physicochemical
Common to all, as to settings: buffer

A short description of data set [1]: Chemical stability assessed as half life at pH 6.0.
Data set [2] in a line: Chemical stability assessed as half life at pH 7.0.
Data set [3] is described as follows: Chemical stability assessed as half life at pH 6.5.

Consider `CCOC(=O)[C@@H](N)CSNC(=O)N1c2ccccc2C=Cc2ccccc21`, for which the half-life in data set [1] was 214 h; in data set [2] it was 50.4 h; in data set [3], 81.6 h.

As usually defined, the half-life is the time needed for the level to fall by half in the phase considered.
